# From US11098040B2, “Compounds and methods of use” (Ferro Therapeutics, Inc., priority 2018, dated 2021)
# Columns and labels:
# KP4 = test: Cell viability assay (CellTiter Glo), pancreatic ductal adenocarcinoma KP4; assay type: cell-based, human; settings: Homo sapiens, KP-4, 96 h, pancreatic cancer cell line KP4, 96 hours, CellTiter Glo; read-out: IC50 μM KP4
# Experimental: (§1) Cell viability assay was performed to assess the potency of the compounds in human cancer cell lines KP4 (pancreatic ductal adenocarcinoma), MiaPaCa-2 (pancreatic carcinoma), AsPC-1 (pancreatic adenocarcinoma, ascites), 143B (osteosarcoma), and SJSA-1 (osteosarcoma). Selected compounds were also assayed in a human breast epithelial cell line MCF-10A, a nontumorigenic cell line as a control to assess differential activity. Cells at a density of 500-5,000 cells/well were seeded in 96-well plates and incubated at 37° C. overnight. A series of 9 different concentrations of compound stocks (500×) were created by 3-fold serial dilution in DMSO. These compounds were further diluted in culture media and then added to cells so that the final DMSO concentration was equal to 0.25% or less. After 96 hours of incubation, 50 μL of CellTiter Glo reagent (Promega) was added to each well and luminescence was measured after 10 minutes using EnVision (PerkinElmer). Compounds titrated from top concentration of up to 30 μM. The select compounds were tested initially from 30 μM as the top concentration in duplicates (range of 4.6 nM-30 μM). […] Luminescence from cells treated with DMSO alone was set as Max and % of inhibition was calculated as follows: Inhibition %=(Max-Sample value)/Max*100. Data was analyzed using XL-fit software (ID Business Solutions Ltd.). IC50, relative IC50, or % of top inhibition was calculated.
# as §1, with “in” for “in human”, “line” for “lines”, “adenocarcinoma).” for “adenocarcinoma), MiaPaCa-2 (pancreatic carcinoma), AsPC-1 (pancreatic adenocarcinoma, ascites), 143B (osteosarcoma), and SJSA-1 (osteosarcoma). Selected compounds were also assayed in a human breast epithelial cell line MCF-10A, a nontumorigenic cell line as a control to assess differential activity.”, “1,000-10,000” for “500-5,000”, “All” for “Compounds titrated from top concentration of up to 30 μM. The select”
# (§2) The results of the assay on stability in blood and IC50 values for pancreatic cancer cell line KP4 are given below in Table 24.
# [1] = Whole blood stability, mouse; assay type: in vitro ADME
# From the text: as §2
# [2] = Whole blood stability, human; assay type: in vitro ADME
# From the text: as §2
SMILES,IC50 (KP4) [µM],Whole Blood Stability % Remaining at 37° C. Mouse ([1]; 0 min) [%],Whole Blood Stability % Remaining at 37° C. Mouse ([1]; 30 min) [%],Whole Blood Stability % Remaining at 37° C. Mouse ([1]; 60 min) [%],Whole Blood Stability % Remaining at 37° C. Human ([2]; 0 min) [%],Whole Blood Stability % Remaining at 37° C. Human ([2]; 30 min) [%],Whole Blood Stability % Remaining at 37° C. Human ([2]; 60 min) [%]
COC(=O)[C@H]1Cc2c([nH]c3ccccc23)[C@H](c2ccc(C(=O)OCC3CCCCC3)cc2)N1C(=O)CCl [Compound 89],< 0.01,100.0,0.0,0.0,100.0,84.8,91.2
CC(C)N(C(=O)[C@H]1Cc2c([nH]c3ccccc23)[C@H](c2ccc(C(=O)N(C)C)cc2)N1C(=O)CCl)C(C)C [Compound 39],0.1 to 0.5,100.0,73.2,60.4,100.0,64.5,50.4
COC(=O)[C@H]1Cc2c([nH]c3ccccc23)[C@H](c2ccc(N[C@]34CC5C[C@H](C[C@H](C5)C3)C4)cc2)N1C(=O)CCl [Compound 29],< 0.01,100.0,61.9,51.1,100.0,67.3,49.2
COC(=O)[C@H]1Cc2c([nH]c3ccccc23)[C@H](c2ccc(OC(=O)C(C)(C)C)cc2)N1C(=O)CCl [Compound 13],0.1 to 0.5,100.0,0.0,0.0,100.0,34.9,29.2
COC(=O)c1cccc([C@H]2c3[nH]c4ccccc4c3C[C@H](C(=O)OC)N2C(=O)CCl)c1 [Compound 100],< 0.01,100.0,35.8,10.8,100.0,60.9,44.3
COC(=O)[C@H]1Cc2c([nH]c3ccccc23)[C@H](c2ccc(C(=O)N3CCC(O)CC3)cc2)N1C(=O)CCl [Compound 32],> 1,100.0,0.0,0.0,100.0,0.1,0.1
"COC(=O)[C@H]1Cc2c([nH]c3ccccc23)[C@H](c2ccc(C(=O)NC(C(=O)O)C(C)(C)C)cc2)N1C(=O)CCl (single isomer, unassigned) [Compound 10]",0.5 to 1,100.0,82.2,65.0,100.0,84.0,54.3
CC[C@H]1Cc2c([nH]c3ccccc23)[C@@H](c2ccc(C(=O)OC)cc2)N1C(=O)CCl [Compound 99],> 1,100.0,4.0,0.0,100.0,94.5,67.9
CC(C)(C)OC(=O)c1ccc([C@H]2c3[nH]c4ccccc4c3C[C@H](C(=O)OC(C)(C)C)N2C(=O)CCl)cc1 [Compound 19],< 0.01,100.0,44.5,21.2,100.0,44.4,35.6
C[C@H]1Cc2c([nH]c3ccccc23)[C@H](c2ccc(NCC3CC3)cc2)N1C(=O)CCl [Compound 116],0.1 to 0.5,100.0,82.6,67.1,100.0,79.2,62.0
CN(C)C(=O)[C@H]1Cc2c([nH]c3ccccc23)[C@H](c2ccc([Si](C)(C)C)cc2)N1C(=O)CCl [Compound 67],0.01 to 0.1,100.0,38.7,13.3,100.0,56.8,37.3
CN(C)C(=O)[C@H]1Cc2c([nH]c3ccccc23)[C@H](c2ccc(S(=O)(=O)C3CCCC3)cc2)N1C(=O)CCl [Compound 69],0.01 to 0.1,100.0,63.8,29.3,100.0,48.4,18.3
COC(=O)[C@H]1Cc2c([nH]c3ccccc23)[C@H](c2ccc(C(=O)OCC3(C)CC3)cc2)N1C(=O)CCl [Compound 84],< 0.01,100.0,0.0,0.0,100.0,87.7,58.3
C[C@H]1Cc2c([nH]c3ccccc23)[C@H](c2ccc(C3CCOCC3)cc2)N1C(=O)CCl [Compound 112],< 0.01,100.0,68.7,69.3,100.0,58.3,44.6
COC(=O)[C@H]1Cc2c([nH]c3ccccc23)[C@H](c2ccc(C(=O)OC(C)(C)C)cc2)N1C(=O)/C=C/CCl [Compound 25],0.1 to 0.5,100.0,46.2,24.4,100.0,55.0,51.9
COC(=O)c1ccc([C@@H]2c3c(c4ccccc4n3C)C[C@H](C(=O)OC)N2C(=O)CCl)cc1 [Compound 73],0.5 to 1,100.0,48.5,1.1,100.0,55.1,36.1
C[C@H]1Cc2c([nH]c3ccc(F)cc23)[C@H](c2ccc(N3CCOCC3)cc2)N1C(=O)CCl [Compound 114],< 0.01,100.0,59.3,0.0,100.0,88.1,50.8
O=C(O)c1ccc([C@H]2c3[nH]c4ccccc4c3C[C@H](C(=O)O)N2C(=O)CCl)cc1 [Compound 5],> 1,100.0,86.3,67.9,100.0,106.3,82.0
